Read-outs that look alike come from different tables or passages of the source.
What was measured:
Assay type in all cases: cell-based, human
[1] = tested on: NALM-6 leukemia cells; experiment: Mitochondrial transmembrane potential, DiIC1 staining, flow cytometry
Procedure: […] Mitochondrial membrane potential (ΔΨm) was measured using two dyes including a lipophollic cation 5,5′,6,6′-tetrachloro-1,1′,3,3′-tetraethlybenzimidazolylcarbocyanine iodide (JC-1; Molecular probes, Eugene, Oreg.) and a cyanine dye, 1,1′,3,3,3′,3′-hexamethylindodicarbocyanine iodide [DiIC1(5); Molecular probes] as earlier described (22). JC-1 can enter the cells, and selectively mitochondria, and has been used to assess ΔΨm in a variety of studies (23,24). JC-1 is a monomer at 527 nm after being excited at 490 nm; with polarization of ΔΨm, J-aggregates are formed that shift emission to 590 nm (23, 24). This can be detected on a flow cytometer by assessing the green signal (at 527 nm) and green-orange signal (at 590 nm) simultaneously, creating an index of the number of cells polarized and depolarized mitochondria. The treated and control cells were washed and plated in a 6-well plate at 1×10^6 cells in fresh medium. JC-1 was added at a concentration of 10 μg/ml, and cells were incubated for 10 min in the dark at room temp. Cells were then washed twice with ice-cold PBS and immediately analyzed using Becton Dickinson (San Jose, Calif.) Calibur flow cytometer. At least 2×10^3 cells were analyzed to determine the percentage of cells with polarized and depolarized mitochondria. DiIC1(5), a cyanine dye is amphioatheic and cationic that concentrate in energized mitochondria and has been used in a variety of studies to measure the mitochondrial membrane potential (25–27). NALM-6 cells were stained with DiIC1(5) at 40 nM concentration for 30 min in the dark as described for JC-1. The cells were analyzed using Vantage Becton Dickinson cell sorter equipped with HeNe laser with excitation at 635 nm and the fluorescence was collected at 666 nm.

[2] = tested on: 64cp5 testicular cancer cells; experiment: Cytotoxic activity of oxovanadium(IV) compounds, 64cp5; settings: read-out: Cytotoxic Activity 64cp5
Procedure: (§1) The cytotoxicity of oxovanadium (W) complexes listed in Table 6 were tested against 9 different human cancer cell lines was performed using the MTT (3-[4,5-dimethylthiazol-2-yl]-2,5-diphenyl tetrazolium bromide) assay (Boehringer Mannheim Corp., Indianapolis, Ind.) as described previously (20). Briefly, exponentially growing tumor cells were seeded into a 96-well plate at a density of 4×10^4cells/well and incubated with medium containing the oxovanadium(IV) compounds concentrations ranging from 0.1 to 250 μM for 48 hours at 37° C. in a humidified 5% CO2 atmosphere. Triplicate wells were used for each treatment. To each well, 10 μl of MTT (0.5 mg/ml final concentration) was added and the plates were incubated at 37° C. for 4 hours to allow MTT to form formazan crystals by reacting with metabolically active cells . The formazan crystals were solubilized overnight at 37° C. in a solution containing 10% SDS in 0.01 M HCl. The absorbence of each well was measured in a microplate reader (Labsystems) at 540 nm and a reference wavelength of 690 nm. To translate the OD540 values into the number of live cells in each well, the OD540 values were compared to those on standard OD540—versus—cell number curves generated for each cell line. The percent survival was calculated using the formula: % survival=Live cell number[test]/Live cell number [control]×100. The IC50 values were calculated by non-linear regression analysis using an Graphpad Prism software version 2.0 (Graphpad Software, Inc., San Diego, Calif.).

[3] = tested on: BT20 breast cancer cells; experiment: Cytotoxic activity of oxovanadium(IV) compounds, BT20; settings: read-out: Cytotoxic Activity BT20
Procedure: as §1

[4] = tested on: ARH77 multiple myeloma cells; experiment: MTT cytotoxicity assay of oxovanadium(IV) compounds, ARH77; settings: 48 hr
Procedure: as §1, with “Briefly, exponentially growing tumor cells were seeded into a 96-well plate at a density of 4×10^4cells/well and incubated with medium containing the oxovanadium(IV) compounds concentrations ranging from 0.1 to 250 μM for 48 hours at 37° C. in a humidified 5% CO2 atmosphere.” left out

[5] = tested on: MOLT-3 cells; experiment: MTT cytotoxicity assay of oxovanadium(IV) compounds, MOLT-3; settings: 48 hr
Procedure: as §1

EC50 ([1]; 24 hr treatment, read-out: average EC50 for depolarization of mitochondria (decreased DiIC1 staining), 24 hr): 3.6 µM
EC50 ([1]; 48 hr treatment, read-out: average EC50 for depolarization of mitochondria (decreased DiIC1 staining), 48 hr): 0.3 µM
EC50 ([1]; 72 hr treatment, read-out: average EC50 for depolarization of mitochondria (decreased DiIC1 staining), 72 hr): 0.08 µM
Substance: bis(4,7-dimethyl-1,10-phenanthroline)sulfatooxovanadium(IV) [Compound 29]
fraction of DiIC1-negative cells with depolarized mitochondria ([1]; 1 μM, 48 hours (vehicle 6.5%)): 91.5%
IC50 [2]: 0.75 µM
IC50 [3]: 1.5 µM
IC50 [4]: 0.81 ± 0.9 µM
IC50 [5]: 0.19 ± 0.01 µM

Source: US7091351B2, “Vanadium compounds for treating cancer” (Parker Hughes Institute, priority 1998, dated 2006)
